# In patent US7696313B2, “Prodrug compounds with isoleucine” (priority 2000, dated 2010):
# Where two headings read alike, the source gives them in different places.
# Legend:
# [1] = system: carcinoma cell trouase (MCF 7/6 cell homogenate, MCF 7/6 conditioned media, HeLa cell extract anion exchange fraction pool); assay: Cleavage assay with carcinoma cell enzyme (trouase) preparations; format: biochemical, human; conditions: under appropriate assay conditions
# Description: A good candidate for a prodrug with improved therapeutic index is activated by cancer cells but relatively stable in whole human blood. Three different preparations of carcinoma cell trouase were used to screen various test compounds. These three preparations were as follows:
# (a) MCF 7/6 (breast carcinoma) cell homogenate
# (b) MCF 7/6 (breast carcinoma) conditioned media, and
# (c) HeLa (cervical carcinoma) cell extract anion exchange fraction pool.
# MCF 7/6 cells were grown to confluence in a serum free medium containing DMEM:F12 (1:1), 50 mg/L bovine serum albumin, ITS-X (10 mg/L insulin, 5.5 mg/L transferrin, 6.7 μg/L Na selenite, 2 mg/L ethanolamine), and Lipid Concentrate (Gibco #21900-030)100 mL of cells were harvested by centrifugation at 4° C. 10,000×g, for 20 min and decanting the supernatant. The pellet was resuspended in 2 mL phosphate buffered saline (Gibco) and centrifuged at 18,000×g for 10 min. […]
# A portion of the ultracentrifugation supernatant was diluted 2-fold with a 20 mM triethanolamine-HCl pH 7.2 buffer containing 0.01% (w/v) Triton X-100 and 0.02% (w/v) sodium azide (equilibration buffer). […] Its transformation into Ala-Leu-Dox was quantified by reverse phase high performance liquid chromatography utilizing fluorescence detection of the anthracycline moiety. […]
# [2] = Metabolism and clearance in normal mice (plasma and urine, LC MS/MS); format: in vivo
# Description: The metabolism and clearance of Suc-Ile-Ala-Leu-Dox was studied in normal mice. The mice were administered Suc-Ile-Ala-Leu-Dox at a single intravenous bolus dose of 117 mg/kg. Plasma samples were obtained at 1 and 4 hours. Plasma samples of 100 μl were transferred to Eppendorf tubes (1.5 mL) and an internal standard of daunorubicin (20 μL at 0.5 mg/ml) was added together with acetonitrile (400 μl). The tubes were capped and briefly vortexed followed by centrifugation at 14,000 rpm. 420 μl from each tube was removed and dried in vacuo. Each sample was reconstituted in 65 μl ammonium formate containing acetonitrile (20%) prior to analysis by reverse phase liquid chromatography in combination with tandem mass spectrometry (LC MS/MS).
# Urine was collected at 2 and 24 hours post administration from pairs of mice in metabolic cages. Urine samples were diluted with ammonium formate containing acetonitrile (20%) to give a target analyte concentration within the practical range of the LC MS/MS assay. 30 μl of each diluted sample was placed in an Eppendorf tube (1.5 ml) and an internal standard of daunorubicin (20 μL at 0.5 mg/ml) was added together with 50 μl of ammonium formate containing acetonitrile (20%). Each sample was then analyzed by LC MS/MS.
# An Agilent HP 1100. HPLC with DAD detector and Chemstation software was coupled to a PE Sciex API 365 mass spectrometer with an electrospray ion source.
# HPLC was performed on a TSK-Gel Super ODS, […], 4.6×50 mm (TosoHaas) reversed phase column equipped with a […] C18 guard disc (Higgins Analytical) and stainless steel frit (Upchurch Scientific). Chromatography was performed at room temperature. The flow rate was 0.5 ml/min. Injection volume was 50 μl. Gradient elution was performed using a mobile phase of 20 mM ammonium formate with increasing amounts of acetonitrile. The API 365 was operated at 365° C. in a multiple reaction monitoring mode, set to monitor specific analyte parent-daughter ion pairs. Integration of chromatograms was performed by MacQuan software (PE Sciex) and quantitation of each analyte obtained by comparison to previously obtained calibration curves. Daunorubicin was used as an internal standard in all cases.
# Percent of administered dose—plasma volume estimated at 40% of blood volume, which was calculated at 7% of animal's body weight.
# Plasma samples were obtained at 1 and 4 hours from separate mice. Urine was collected at 2 and 24 hours post administration from pairs of mice in metabolic cages. The plasma and urine samples were prepared and analyzed as described in Example 4.
# [3] = as above; format: in vivo; remark: listed apart in the source
# [4] = Initial single dose Maximum Tolerated Dose (MTD) study, 28 days; format: in vivo, mice; conditions: mouse, in vivo, intravenous
# Description: In our initial single dose Maximum Tolerated Dose (MTD) study, groups of five normal mice were administered intravenous bolus doses of Suc-Ile-Ala-Leu-Dox. The mice were observed daily for 28 days and body weights measured twice weekly.
# The mice were observed daily for 28 days and body weights measured twice weekly.
# In the single dose Maximum Tolerated Dose (MTD) studies, groups of normal mice were administered intravenous bolus doses of the prodrug. The mice were observed daily for 28 days and body weights measured twice weekly. The MTD was estimated to be equal to the highest dose that produced no death in mice after 28 days.
# [5] = Repeat-dose tolerance (RD-MTD) in tumor bearing mice; format: in vivo; conditions: mouse, in vivo, corrected results
# Description: In repeat-dose studies in tumor bearing mice, groups of ten mice were dosed with various amounts of prodrug for a total of five doses at either five day or 1 week intervals.
# [6] = after Suc-Ile-Ala-Leu-Dox 117 mg/kg single intravenous bolus
# [7] = after Suc-βAla-Ile-Ala-Leu-Dox 117 mg/kg single intravenous bolus
compound,measurement,setting,value
"COc1cccc2c1C(=O)c1c(O)c3c(c(O)c1C2=O)C[C@@](O)(C(=O)CO)C[C@@H]3O[C@H]1C[C@H](NC(=O)[C@H](CC(C)C)NC(=O)[C@H](C)NC(=O)[C@H](CC(C)C)NC(=O)CCNC(=O)CCC(=O)O)[C@H](O)[C@H](C)O1 [Suc-βAla-Leu-Ala-Leu-Dox, reference compound]","Major Plasma Metabolite, Table 7",mice,Ala-Leu-Dox
same,"Major Plasma Metabolite, Table 8",mice,Ala-Leu-Dox
CC[C@H](C)[C@H](NC(=O)CCNC(=O)CCC(=O)O)C(=O)N[C@@H](C)C(=O)N[C@@H](CC(C)C)C(=O)N[C@H]1C[C@H](O[C@H]2C[C@](O)(C(C)=O)Cc3c(O)c4c(c(O)c32)C(=O)c2c(OC)cccc2C4=O)O[C@@H](C)[C@H]1O [succinyl-βAla-Ile-Ala-Leu-Daunorubicin],cleavage activity of trouase,[1],at least twenty-fold less active
"COc1cccc2c1C(=O)c1c(O)c3c(c(O)c1C2=O)C[C@@](O)(C(C)=O)C[C@@H]3O[C@H]1C[C@H](NC(=O)[C@H](CC(C)C)NC(=O)[C@H](C)NC(=O)[C@H](CC(C)C)NC(=O)CCNC(=O)CCC(=O)O)[C@H](O)[C@H](C)O1 [succinyl-βAla-Leu-Ala-Leu-Daunorubicin, reference compound]",cleavage activity of trouase,[1],readily cleaves
COc1cccc2c1C(=O)c1c(O)c3c(c(O)c1C2=O)C[C@@](O)(C(=O)CO)C[C@@H]3O[C@H]1C[C@H](NC(=O)[C@@H](N)CC(C)C)[C@H](O)[C@H](C)O1 [Leu-Dox],"Plasma 1 hr, percent of administered dose",[2]; [6],0.02 % of administered dose
same,"Plasma 4 hr, percent of administered dose",[2]; [6],0.00 % of administered dose
same,"Urine 2 hr, percent of administered dose","[2]; after Suc-Ile-Ala-Leu-Dox 117 mg/kg, collected 0-2 hours",1.17 % of administered dose
same,"Urine 24 hr, percent of administered dose","[2]; after Suc-Ile-Ala-Leu-Dox 117 mg/kg, collected 2-24 hours",2.25 % of administered dose
same,"Plasma 1 hr, percent of administered dose",[3]; [7],0.04 % of administered dose
same,"Plasma 4 hr, percent of administered dose",[3]; [7],0.00 % of administered dose
same,"Urine 2 hr, percent of administered dose","[3]; after Suc-βAla-Ile-Ala-Leu-Dox 117 mg/kg, collected 0-2 hours",4.69 % of administered dose
same,"Urine 24 hr, percent of administered dose","[3]; after Suc-βAla-Ile-Ala-Leu-Dox 117 mg/kg, collected 2-24 hours",2.29 % of administered dose
"COc1cccc2c1C(=O)c1c(O)c3c(c(O)c1C2=O)C[C@@](O)(C(=O)CO)C[C@@H]3O[C@H]1C[C@H](NC(=O)[C@H](CC(C)C)NC(=O)[C@H](C)NC(=O)[C@H](CC(C)C)NC(=O)CCC(=O)O)[C@H](O)[C@H](C)O1 [Suc-Leu-Ala-Leu-Dox, reference compound]",MTD at 28 days,"[4]; 28 days, uncorrected doses, read-out: SD MTD (mg/kg), Table 7",> 117 mg/kg
same,MTD at 28 days,"[4]; SD MTD, doxorubicin equivalent dose, Table 8, value in parentheses, corrected results",35 mg/kg
same,MTD at 28 days,"[4]; SD MTD, molar equivalent dose of doxorubicin, Table 7, value in parentheses, uncorrected",> 70 mg/kg
same,MTD at 28 days,"[4]; corrected results, read-out: SD MTD (mg/kg), Table 8",59 mg/kg
same,MTD at 60 days,"[5]; Repeat Dose MTD, doxorubicin equivalent dose, Table 8, value in parentheses",31 mg/kg
same,MTD at 60 days,"[5]; Q 5D × 5 or Q 7D × 5, read-out: Repeat Dose MTD (mg/kg), Table 8",52 mg/kg
same,"Major Plasma Metabolite, Table 7","mouse, in vivo",Leu-Dox
same,"Major Plasma Metabolite, Table 8","mouse, in vivo",Leu-Dox
COc1cccc2c1C(=O)c1c(O)c3c(c(O)c1C2=O)C[C@@](O)(C(=O)CO)C[C@@H]3O[C@H]1C[C@H](NC(=O)[C@H](CC(C)C)NC(=O)[C@H](C)N)[C@H](O)[C@H](C)O1 [Ala-Leu-Dox],"Plasma 1 hr, percent of administered dose","[2]; mouse, in vivo",0.00 % of administered dose
same,"Plasma 4 hr, percent of administered dose","[2]; mouse, in vivo",0.00 % of administered dose
same,"Urine 24 hr, percent of administered dose","[2]; mouse, in vivo",0.00 % of administered dose
